Reference: publication PMC8286840, “Identifying SARS-CoV-2 antiviral compounds by screening for small molecule inhibitors of Nsp3 papain-like protease” (Biochemical Journal, 2021)
Where a name gives a salt, the structure may show the parent alone. Read-outs that look alike come from different tables or passages of the source. Where a SMILES comes first, the peptide text is derived from it. The star is where a group is joined. Cbz = O=C(OCc1ccccc1)*; PhAc = O=C(Cc1ccccc1)*

Tests used:
[1] = biological target: T1, SARS-CoV-2 PLpro (nsp3 1564–1878) (Severe acute respiratory syndrome coronavirus 2, UniProt P0DTD1); experiment: biochemical; parameters: FRET-quenched peptide (Pro3) cleavage by PLpro, 10 min pre-incubation, slope over 20 min, normalised to no-compound control; details: high concentration screen, read-out: % of control remaining
[2] = biological target: T1, SARS-CoV-2 PLpro (nsp3 1564–1878); experiment: biochemical; parameters: FRET-quenched peptide (Pro3) cleavage by PLpro, 10 min pre-incubation, slope over 20 min, normalised to no-compound control; details: low concentration screen, read-out: % of control remaining

## CC(C)[C@H](CO)Nc1nc(Nc2ccc(C(=O)O)c(Cl)c2)c2ncn(C(C)C)c2n1 [Purvalanol B - (2R)-2-[[6-[(3-Chloro-4-carboxyphenyl)amino]-9-(1-methylethyl)-9H-purin-2-yl]amino]-3-methyl-1-butanol]
[1]; Well no.=2436
  remaining activity at 3.75 µM: 105%
[2]; Well no.=2436
  remaining activity at 1.25 µM: 103%

## Cc1ccc(NC(=O)c2ccc(CN3CCN(C)CC3)cc2)cc1Nc1nccc(-c2cccnc2)n1 [Imatinib]
[1]; Well no.=2839
  remaining activity at 3.75 µM: 102%
[2]; Well no.=1611
  remaining activity at 1.25 µM: 102%
[2]; Well no.=2839
  remaining activity at 1.25 µM: 99.7%

## CCC(=O)C(=O)O [2-Oxobutanoic acid]
[1]; Well no.=6293
  remaining activity at 3.75 µM: 105%
[2]; Well no.=6293
  remaining activity at 1.25 µM: 106%

## CC(=O)N[C@@H](CCC(N)=O)C(=O)O [Aceglutamide]
[1]; Well no.=7402
  remaining activity at 3.75 µM: 102%
[2]; Well no.=7402
  remaining activity at 1.25 µM: 106%

## CN(C)CCC[C@@]1(c2ccc(F)cc2)OCc2cc(C#N)ccc21 [Escitalopram Oxalate]
[1]; Well no.=5128
  remaining activity at 3.75 µM: 107%
[2]; Well no.=5128
  remaining activity at 1.25 µM: 109%

## CCOC(=O)CNC(=O)[C@@H]1CCCN1C(=O)Cc1ccccc1 [Noopept] (PhAc-Pro-Gly-OEt)
[1]; Well no.=5674
  remaining activity at 3.75 µM: 104%
[2]; Well no.=5674
  remaining activity at 1.25 µM: 104%

## CCC1=C(C)CN(C(=O)NCCc2ccc(S(=O)(=O)NC(=O)N[C@H]3CC[C@H](C)CC3)cc2)C1=O [Glimepiride]
[1]; Well no.=2178
  remaining activity at 3.75 µM: 97%
[2]; Well no.=2178
  remaining activity at 1.25 µM: 96.4%

## CC1=CC(=O)CC(C)(C)C1(O)/C=C/C(C)=C\C(=O)O (racemic)
[1]; Well no.=3152
  remaining activity at 3.75 µM: 102%
[2]; Well no.=3152
  remaining activity at 1.25 µM: 101%

## CC(C)C(=O)OCC(=O)[C@@]12O[C@H](C3CCCCC3)O[C@@H]1C[C@H]1[C@@H]3CCC4=CC(=O)C=C[C@]4(C)[C@H]3[C@@H](O)C[C@@]12C [Ciclesonide]
[1]; Well no.=7323
  remaining activity at 3.75 µM: 97.2%
[2]; Well no.=7323
  remaining activity at 1.25 µM: 95.9%

## O=c1c(-c2ccc(O)cc2)coc2cc(O)ccc12 [Daidzein]
[1]; Well no.=438
  remaining activity at 3.75 µM: 99.2%
[1]; Well no.=3219
  remaining activity at 3.75 µM: 104%
[2]; Well no.=438
  remaining activity at 1.25 µM: 102%
[2]; Well no.=3219
  remaining activity at 1.25 µM: 103%

## CCN(CCCCOC(=O)c1ccc(OC)c(OC)c1)C(C)Cc1ccc(OC)cc1 (stereo not drawn) [Mebeverine (hydrochloride)]
[1]; Well no.=7048
  remaining activity at 3.75 µM: 101%
[2]; Well no.=7048
  remaining activity at 1.25 µM: 108%

## COc1ccc(C(=O)Nc2sc3c(c2C(N)=O)CCCC3)cc1OC [Flt-3 Inhibitor]
[1]; Well no.=2407
  remaining activity at 3.75 µM: 105%
[2]; Well no.=2407
  remaining activity at 1.25 µM: 105%

## CC(C)C[C@@H](C=O)NC(=O)[C@H](CC(C)C)NC(=O)[C@H](CC(C)C)NC(=O)OCc1ccccc1 [MG-132] (Cbz-Leu-Leu-Leu-aldehyde)
[1]; Well no.=8436
  remaining activity at 3.75 µM: 97.5%
[2]; Well no.=8436
  remaining activity at 1.25 µM: 96.8%

## O=C(Nc1cc(C(F)(F)F)cc(C(F)(F)F)c1)c1cc(Cl)ccc1O [IMD 0354 - N-[3,5-Bis(trifluoromethyl)phenyl]-5-chloro-2-hydroxybenzamide]
[1]; Well no.=2586
  remaining activity at 3.75 µM: 82.3%
[2]; Well no.=2586
  remaining activity at 1.25 µM: 86.3%

## CN(C(=O)Cc1ccc(Cl)c(Cl)c1)C(CN1CCCC1)c1cccc(OCC(=O)O)c1 (stereo not drawn) [ICI 204,448 hydrochloride]
[1]; Well no.=1065
  remaining activity at 3.75 µM: 104%
[2]; Well no.=1065
  remaining activity at 1.25 µM: 101%

## C[C@H](O)[C@H](O)C1=Nc2c(nc(N)[nH]c2=O)NC1 [7,8-Dihydro-L-biopterin]
[1]; Well no.=7401
  remaining activity at 3.75 µM: 102%
[2]; Well no.=7401
  remaining activity at 1.25 µM: 110%

## COc1c2occc2cc2ccc(=O)oc12 [Xanthotoxin]
[1]; Well no.=3459
  remaining activity at 3.75 µM: 106%
[2]; Well no.=3459
  remaining activity at 1.25 µM: 104%

## COc1cccc(CCc2ccccc2OCC(CN(C)C)OC(=O)CCC(=O)O)c1 (stereo not drawn) [Sarpogrelate (hydrochloride)]
[1]; Well no.=6228
  remaining activity at 3.75 µM: 96.1%
[2]; Well no.=6228
  remaining activity at 1.25 µM: 106%

## FC(F)(F)c1ccccc1-n1ccnc1 [1-[2-(Trifluoromethyl)phenyl]imidazole]
[1]; Well no.=1533
  remaining activity at 3.75 µM: 90.7%
[2]; Well no.=1533
  remaining activity at 1.25 µM: 89.9%

## CNC[C@H](O)c1ccc(O)c(O)c1 (racemic)
[1]; Well no.=605
  remaining activity at 3.75 µM: 99.2%
[2]; Well no.=605
  remaining activity at 1.25 µM: 99.5%

## Cc1c([C@H](C)[C@@H]2NC[C@@H](C)C[C@H]2O)ccc2c1C[C@H]1[C@H]2CC=C2C[C@@H](O)CC[C@@]21C [Veratramine]
[1]; Well no.=3280
  remaining activity at 3.75 µM: 102%
[2]; Well no.=3280
  remaining activity at 1.25 µM: 102%

## CC(C)C[C@H](CO)Nc1nc(S[C@@H](C)c2ccccc2)nc2nc(N)sc12 [AZD8797]
[1]; Well no.=8313
  remaining activity at 3.75 µM: 103%
[2]; Well no.=8313
  remaining activity at 1.25 µM: 103%

## CC(COc1ccccc1)N(CCCl)Cc1ccccc1 (stereo not drawn) [Phenoxybenzamine hydrochloride]
[1]; Well no.=371
  remaining activity at 3.75 µM: 91.2%
[2]; Well no.=371
  remaining activity at 1.25 µM: 95.1%

## O=C(NCCO)c1cc(C(=O)NCCO)cc(C(=O)NCCO)c1 [N~1~,N~3~,N~5~-tris(2-hydroxyethyl)-1,3,5-benzenetricarboxamide]
[1]; Well no.=6029
  remaining activity at 3.75 µM: 99.9%
[2]; Well no.=6029
  remaining activity at 1.25 µM: 96.8%

## OC[C@H]1O[C@@H](n2cnc3c(NC4CCCC4)nc(Cl)nc32)[C@H](O)[C@@H]1O [2-Chloro-N6-cyclopentyladenosine]
[1]; Well no.=439
  remaining activity at 3.75 µM: 102%
[2]; Well no.=439
  remaining activity at 1.25 µM: 98.2%

## CCOC(=O)c1ccc(NC2CCCCC2)c(N)c1 [Ferrostatin-1]
[1]; Well no.=6252
  remaining activity at 3.75 µM: 98%
[2]; Well no.=6252
  remaining activity at 1.25 µM: 103%

## OC(CCN1CCCCC1)(c1ccccc1)C1CCCCC1 (stereo not drawn) [Trihexyphenidyl hydrochloride]
[1]; Well no.=1187
  remaining activity at 3.75 µM: 92%
[2]; Well no.=1187
  remaining activity at 1.25 µM: 92.8%

## CN(C)CCOC(C)(c1ccccc1)c1ccc(Cl)cc1 (stereo not drawn) [Chlorphenoxamine]
[1]; Well no.=6219
  remaining activity at 3.75 µM: 100%
[2]; Well no.=6219
  remaining activity at 1.25 µM: 102%

## Cc1ccc2c(=O)c3ccccc3n(CCCN)c2c1C [ER 27319 maleate - 10-(3-Aminopropyl)-3,4-dimethyl-9(10H)-acridinone maleate]
[1]; Well no.=2536
  remaining activity at 3.75 µM: 99.3%
[2]; Well no.=2536
  remaining activity at 1.25 µM: 98.5%

## O=c1[nH][nH]c2nnc(-c3c(-c4ccccc4)nn4ccccc34)cc12 [ERK Inhibitor II, Negative control]
[1]; Well no.=2456
  remaining activity at 3.75 µM: 102%
[2]; Well no.=2456
  remaining activity at 1.25 µM: 98.3%

## c1ccc(CN2CCC3(CCCc4ccccc43)CC2)cc1 [L-687,384 hydrochloride]
[1]; Well no.=1123
  remaining activity at 3.75 µM: 97.2%
[2]; Well no.=1123
  remaining activity at 1.25 µM: 96.4%

## CN1CCc2c(c3ccccc3n2Cc2ccc(C(=O)NO)cc2)C1 [Tubastatin A HCl]
[1]; Well no.=4962
  remaining activity at 3.75 µM: 88.7%
[2]; Well no.=4962
  remaining activity at 1.25 µM: 90.5%

## CC(=O)c1ccc2c(c1)[C@H](NC(=O)c1ccc(F)c(Cl)c1)[C@H](O)C(C)(C)O2 [Tonabersat]
[1]; Well no.=5960
  remaining activity at 3.75 µM: 94.8%
[2]; Well no.=5960
  remaining activity at 1.25 µM: 92.7%
